Laboratory results taken from patent publication US6410054B1, “Immediate release eplerenone compositions” (G. D. Searle & Co., priority 1998, dated 2002).

Tests used:
renin and aldosterone = experiment: Treatment of hypertension study: plasma renin and serum aldosterone; assay type: in vivo, humans
Protocol: The safety and efficacy of a range of doses of eplerenone in the treatment of hypertension relative to placebo were evaluated in a multi-center, randomized, double-blind, placebo-lead-in, parallel group study. […] Four hundred and seventeen patients were randomized to one of eight treatments: (i) placebo BID; […] (iv) eplerenone 400 mg QD; (v) eplerenone 25 mg BID; […] The primary efficacy variable was the change in cuff diastolic blood pressure (ADBP; sitting) measured at trough plasma levels after eight weeks of double blind treatment. The secondary variables measured were the change in trough cuff systolic blood pressure (ΔSBP; sitting), change in 24 hour mean diastolic blood pressure (ΔDBP), and change in 24 hour mean systolic blood pressure (ΔSBP). […] Changes in plasma renin and serum aldosterone after eight weeks of dosing were also analyzed as secondary measures of efficacy.

[1] = Multiple dose study: serum electrolytes, renin, aldosterone, sex hormone and thyroid profiles; assay type: in vivo, humans
Protocol: Multiple oral dose tolerability and the pharmacokinetics of several dosages of eplerenone were evaluated in a double-blind, randomized, placebo-controlled, rising oral dose, sequential panel study of 40 healthy male subjects (five groups of eight subjects). The study medication was administered in […] sequential dose panels, with each panel including eplerenone, spironolactone and placebo. […] The 100 mg and 200 mg dose capsules corresponded to those described in Examples 7 and 8, respectively. Following a 48-hour interval, the study drug was administered once a day for 11 days. Antialdosterone activity was determined following a fludrocortisone challenge on Days 12-13.
Excretion of total eplerenone (that is, eplerenone and its open ring lactone form) in the urine represented approximately 5% of the dose for all doses administered. Urinary excretion of total eplerenone occurred almost entirely within the first 24 hours after dosing.

blood pressure = experiment: Treatment of hypertension study: blood pressure; assay type: in vivo, humans; conditions: for 24 hour mean ΔDBP / 24 hour mean ΔSBP / Primary Efficacy Variable: ΔDBP at trough (sitting) / ΔSBP at trough (sitting): eight weeks
Protocol: The safety and efficacy of a range of doses of eplerenone in the treatment of hypertension relative to placebo were evaluated in a multi-center, randomized, double-blind, placebo-lead-in, parallel group study. […] The primary efficacy variable was the change in cuff diastolic blood pressure (ADBP; sitting) measured at trough plasma levels after eight weeks of double blind treatment. The secondary variables measured were the change in trough cuff systolic blood pressure (ΔSBP; sitting), change in 24 hour mean diastolic blood pressure (ΔDBP), and change in 24 hour mean systolic blood pressure (ΔSBP). The primary and secondary efficacy variables were analyzed to compare BID versus QD dosing regimens for each eplerenone dose group, and both eplerenone and spironolactone versus placebo. Changes in plasma renin and serum aldosterone after eight weeks of dosing were also analyzed as secondary measures of efficacy.
The specific pharmaceutical compositions of each eplerenone capsule are reported in Examples 5, 6, 7 and 8. The placebo was a conventional capsule containing lactose.

plasma proteins = experiment: Binding of radioactivity / [14C]eplerenone to plasma proteins; assay type: in vitro ADME, humans
Protocol: The mean concentration of total radioactivity in these samples was 2.39 μg/mL.

Structure (SMILES): COC(=O)C1CC2=CC(=O)CCC2(C)C23OC2CC2(C)C(CC[C@@]24CCC(=O)O4)C13 (stereo partly drawn) [eplerenone, methyl hydrogen 9,11α-epoxy-17α-hydroxy-3-oxopregn-4-ene-7α,21-dicarboxylate, γ-lactone]
- Plasma Renin Active Mean Change From Baseline (renin and aldosterone; 25 mg BID): 1.2 mU/L
- Serum Aldosterone Mean Change From Baseline (renin and aldosterone; 25 mg BID): 7.3 ng/dL
- Plasma Renin Active Mean Change From Baseline (renin and aldosterone; 50 mg BID): 15.0 mU/L
- Serum Aldosterone Mean Change From Baseline (renin and aldosterone; 50 mg BID): 10.0 ng/dL
- Plasma Renin Active Mean Change From Baseline (renin and aldosterone; 50 mg QD): 2.9 mU/L
- Serum Aldosterone Mean Change From Baseline (renin and aldosterone; 50 mg QD): 6.0 ng/dL
- Plasma Renin Active Mean Change From Baseline (renin and aldosterone; 100 mg QD): 13.9 mU/L
- Serum Aldosterone Mean Change From Baseline (renin and aldosterone; 100 mg QD): 10.5 ng/dL
- Plasma Renin Active Mean Change From Baseline (renin and aldosterone; 200 mg BID): 32.0 mU/L
- Serum Aldosterone Mean Change From Baseline (renin and aldosterone; 200 mg BID): 32.8 ng/dL
- Plasma Renin Active Mean Change From Baseline (renin and aldosterone; 400 mg QD): 21.2 mU/L
- Serum Aldosterone Mean Change From Baseline (renin and aldosterone; 400 mg QD): 19.2 ng/dL
- aldosterone compared to placebo (renin and aldosterone; eight weeks of dosing): increases
- total and active renin levels (renin and aldosterone; eight weeks of dosing): increases
- mean plasma renin (active and total) levels ([1]; 100-1000 mg): dose-related increases
- serum aldosterone levels ([1]; 100-1000 mg): dose-related increases
- serum sex hormone and thyroid profiles ([1]; 100-1000 mg): did not show any consistent, sustained or dose-related effects
- serum potassium concentrations ([1]; multiple dose administration): increases
- serum sodium concentrations ([1]; multiple dose administration): transient reductions
- serum sodium and potassium concentrations ([1]; single doses): not significantly changed
- 24 hour mean ΔDBP (blood pressure; 25 mg BID): −3.9 mmHg
- 24 hour mean ΔSBP (blood pressure; 25 mg BID): −7.4 mmHg
- Primary Efficacy Variable: ΔDBP at trough (sitting) (blood pressure; 25 mg BID): −4.5 mmHg
- ΔSBP at trough (sitting) (blood pressure; 25 mg BID): −8.9 mmHg
- 24 hour mean ΔDBP (blood pressure; 50 mg BID): −7.2 mmHg
- 24 hour mean ΔSBP (blood pressure; 50 mg BID): −12.6 mmHg
- Primary Efficacy Variable: ΔDBP at trough (sitting) (blood pressure; 50 mg BID): −7.8 mmHg
- ΔSBP at trough (sitting) (blood pressure; 50 mg BID): −11.8 mmHg
- 24 hour mean ΔDBP (blood pressure; 50 mg QD): −4.8 mmHg
- 24 hour mean ΔSBP (blood pressure; 50 mg QD): −7.1 mmHg
- Primary Efficacy Variable: ΔDBP at trough (sitting) (blood pressure; 50 mg QD): −4.4 mmHg
- ΔSBP at trough (sitting) (blood pressure; 50 mg QD): −4.6 mmHg
- 24 hour mean ΔDBP (blood pressure; 100 mg QD): −6.1 mmHg
- 24 hour mean ΔSBP (blood pressure; 100 mg QD): −9.7 mmHg
- Primary Efficacy Variable: ΔDBP at trough (sitting) (blood pressure; 100 mg QD): −4.5 mmHg
- ΔSBP at trough (sitting) (blood pressure; 100 mg QD): −8.0 mmHg
- 24 hour mean ΔDBP (blood pressure; 200 mg BID): −9.3 mmHg
- 24 hour mean ΔSBP (blood pressure; 200 mg BID): −15.9 mmHg
- Primary Efficacy Variable: ΔDBP at trough (sitting) (blood pressure; 200 mg BID): −9.4 mmHg
- ΔSBP at trough (sitting) (blood pressure; 200 mg BID): −15.8 mmHg
- 24 hour mean ΔDBP (blood pressure; 400 mg QD): −7.6 mmHg
- 24 hour mean ΔSBP (blood pressure; 400 mg QD): −13.0 mmHg
- Primary Efficacy Variable: ΔDBP at trough (sitting) (blood pressure; 400 mg QD): −8.9 mmHg
- ΔSBP at trough (sitting) (blood pressure; 400 mg QD): −14.1 mmHg
- cuff diastolic and systolic pressures from baseline compared to placebo (blood pressure; all eplerenone doses, eight weeks of treatment, hypertension patients): lowered
- blood pressure reduction, QD versus BID dosing regimens (blood pressure; eight weeks of treatment): equivalent reductions
- total radioactivity bound to plasma proteins (plasma proteins; 1.5 hour plasma samples, mean): 49.4%
- percentage of eplerenone bound (plasma proteins; [14C]eplerenone spiked into frozen control plasma, 14.5 μg/mL): 40.4%
